Data taken from ChEMBL document CHEMBL1151334, “Arugosin F: a new antifungal metabolite from the coprophilous fungus Ascodesmis sphaerospora” (1998).

Legend:
Format in all cases: functional
Ascobolus = assay: Antifungal activity against Ascobolus furfuraceus NRRL 6460 at 200 ug/disk by paper disk assay
Sordaria fimicola = assay: Antifungal activity against Sordaria fimicola NRRL 6459 at 200 ug/disk by paper disk assay
Bacillus subtilis = assay: Antibacterial activity against Bacillus subtilis ATCC 6051 at 200 ug/disk by standard disk assay; conditions: read-out: IZ
Staphylococcus aureus = assay: Antibacterial activity against Staphylococcus aureus ATCC 29213 at 200 ug/disk by standard disk assay; conditions: read-out: IZ

Cc1cc(CO)c2c(=O)c3c(O)cccc3oc2c1
inhibition at 200 µg/disc (Ascobolus): 20%
Activity (Sordaria fimicola): 33%
zone of inhibition at 200 µg/disc (Bacillus subtilis): 7 mm

Cc1cc(O)c2c(c1)C(O)Oc1cccc(O)c1C2=O (configuration not stated) [ARUGOSIN F]
inhibition at 200 µg/disc (Ascobolus): 100%
zone of inhibition at 200 µg/disc (Staphylococcus aureus): 7 mm
Activity (Sordaria fimicola): 50%
zone of inhibition at 200 µg/disc (Bacillus subtilis): 15 mm
